The text below walks through data of US9108944B2, “Androgen receptor modulators and uses thereof” (ARAGON PHARMACEUTICALS, INC., priority 2010, dated 2015).

Assay [1] concerns the target T1, AR-VP16 (Homo sapiens, UniProt P10275).
T1 sequence (P10275 560-920 limits assumed): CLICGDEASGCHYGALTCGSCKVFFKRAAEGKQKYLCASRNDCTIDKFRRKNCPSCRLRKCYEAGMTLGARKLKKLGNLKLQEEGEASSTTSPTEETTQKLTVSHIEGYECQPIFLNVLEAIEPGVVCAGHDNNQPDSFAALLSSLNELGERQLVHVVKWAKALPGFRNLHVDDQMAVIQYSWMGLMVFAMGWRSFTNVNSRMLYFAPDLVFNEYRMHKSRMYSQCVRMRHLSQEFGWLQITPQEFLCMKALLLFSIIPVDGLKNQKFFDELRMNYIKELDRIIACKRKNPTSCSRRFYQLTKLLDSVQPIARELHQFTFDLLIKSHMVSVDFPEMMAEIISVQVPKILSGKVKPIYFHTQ
Kind of assay: AR-VP16 DNA Binding Assay, antagonist mode (HepG2 cells, 0.1 nM R1881). It counts as cell-based. The procedure, abridged:
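HepG2 cells transiently transfected with AR-VP16 (Lipofectin), incubated overnight, then treated with compound in RPMI with charcoal-stripped serum. Antagonist mode adds R1881 at 0.1 nM final. Cells lysed after 48 h incubation for read-out.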

The target of assay [2] is T1, AR-VP16. Kind of assay: AR-VP16 DNA Binding Assay, agonist mode (HepG2 cells). It counts as cell-based. As to conditions: Emax >20x DMSO control = agonist.

A word on the IC50: it is the concentration that inhibits the measured activity by half. As for `Cc1cc(N2C(=O)C3(CCC3)N(c3ccc(OC4CCN(C)CC4)c(F)c3)C2=S)cnc1C#N` [Compound 192, 5-(5-(3-Fluoro-4-((1-methylpiperidin-4-yl)oxy)phenyl)-8-oxo-6-thioxo-5,7-diazaspiro[3.4]octan-7-yl)-3-methylpicolinonitrile], the IC50 at AR-VP16 [1] was over 1000 nM. Further, the “ARVP16 DNA Binding Assay (Agonist mode): Agonist?” value (from here on “ARVP16 DNA Binding Assay”) at AR-VP16 [2] is “No (Agonist defined as a compound whose Emax in the ARVP16 DNA Binding Assay (Agonist mode) is >20x DMSO control)”.

Regarding `Cc1cc(N2C(=O)C3(CCC3)N(c3ccc(OC4CCSCC4)cc3)C2=S)cnc1C#N` [Compound 195, 3-Methyl-5-(8-oxo-5-(4-((tetrahydro-2H-thiopyran-4-yl)oxy)phenyl)-6-thioxo-5,7-diazaspiro[3.4]octan-7-yl)picolinonitrile], the IC50 at AR-VP16 [1] was under 1000 nM. Besides, the “ARVP16 DNA Binding Assay” value on AR-VP16 [2] is “No (Agonist defined as a compound whose Emax in the ARVP16 DNA Binding Assay (Agonist mode) is >20x DMSO control)”.

Compound `Cc1cc(N2C(=O)C(C)(C)N(c3ccc(OC4CCN(C)CC4)cc3)C2=S)cnc1C#N` [Compound 197, 5-(4,4-Dimethyl-3-(4-((1-methylpiperidin-4-yl)oxy)phenyl)-5-oxo-2-thioxoimidazolidin-1-yl)-3-methylpicolinonitrile] registered an IC50 at AR-VP16 [1] of over 1000 nM. In addition, at AR-VP16 [2], the “ARVP16 DNA Binding Assay” value is “No (Agonist defined as a compound whose Emax in the ARVP16 DNA Binding Assay (Agonist mode) is >20x DMSO control)”.

Regarding `N#Cc1ncc(N2C(=O)C3(CCC3)N(c3ccc(OC4CCOCC4)cc3)C2=S)cc1C(F)(F)F` [Compound 198, 5-(8-Oxo-5-(4-((tetrahydro-2H-pyran-4-yl)oxy)phenyl)-6-thioxo-5,7-diazaspiro[3.4]octan-7-yl)-3-(trifluoromethyl)picolinonitrile], the IC50 at AR-VP16 [1] was under 1000 nM. The “ARVP16 DNA Binding Assay” value at AR-VP16 [2] is recorded as “No (Agonist defined as a compound whose Emax in the ARVP16 DNA Binding Assay (Agonist mode) is >20x DMSO control)”.

`Cc1cc(N2C(=O)C3(CCC3)N(c3ccc(OCCN4CCN(C)CC4)cc3)C2=S)cnc1C#N` [Compound 200, 3-Methyl-5-(5-(4-(2-(4-methylpiperazin-1-yl)ethoxy)phenyl)-8-oxo-6-thioxo-5,7-diazaspiro[3.4]octan-7-yl)picolinonitrile] had an IC50 at AR-VP16 [1] of under 1000 nM. For the same compound, the “ARVP16 DNA Binding Assay” value on AR-VP16 [2] is “Yes (Agonist defined as a compound whose Emax in the ARVP16 DNA Binding Assay (Agonist mode) is >20x DMSO control)”.

On to `Cc1cc(N2C(=O)C3(CCC3)N(c3ccc(OC4CCS(=O)(=O)CC4)cc3)C2=S)cnc1C#N` [Compound 201, 5-(5-(4-((1,1-Dioxidotetrahydro-2H-thiopyran-4-yl)oxy)phenyl)-8-oxo-6-thioxo-5,7-diazaspiro[3.4]octan-7-yl)-3-methylpicolinonitrile], for which, at AR-VP16 [1], the half-inhibitory concentration (IC50) was under 1000 nM. Moreover, the “ARVP16 DNA Binding Assay” value on AR-VP16 [2] was “No (Agonist defined as a compound whose Emax in the ARVP16 DNA Binding Assay (Agonist mode) is >20x DMSO control)”.

For the compound `COc1ccc(N2C(=S)N(c3cnc(C#N)c(C(F)(F)F)c3)C(=O)C23CCC3)cc1F` [Compound 203, 5-(5-(3-Fluoro-4-methoxyphenyl)-8-oxo-6-thioxo-5,7-diazaspiro[3.4]octan-7-yl)-3-(trifluoromethyl)picolinonitrile], the IC50 at AR-VP16 [1] is under 1000 nM. Moreover, the “ARVP16 DNA Binding Assay” value at AR-VP16 [2] was “No (Agonist defined as a compound whose Emax in the ARVP16 DNA Binding Assay (Agonist mode) is >20x DMSO control)”.

At AR-VP16 [1], `COc1ccc(N2C(=S)N(c3cnc(C#N)c(C)c3)C(=O)C23CCC3)cc1` [Compound 205, 5-(5-(4-Methoxyphenyl)-8-oxo-6-thioxo-5,7-diazaspiro[3.4]octan-7-yl)-3-methylpicolinonitrile] displayed an IC50 of under 1000 nM. The “ARVP16 DNA Binding Assay” value on AR-VP16 [2] is recorded as “No (Agonist defined as a compound whose Emax in the ARVP16 DNA Binding Assay (Agonist mode) is >20x DMSO control)”.

On to `N#Cc1ncc(N2C(=O)C3(CCC3)N(c3ccc(Oc4cnccn4)cc3)C2=S)cc1C(F)(F)F` [Compound 207, 5-(8-Oxo-5-(4-(pyrazin-2-yloxy)phenyl)-6-thioxo-5,7-diazaspiro[3.4]octan-7-yl)-3-(trifluoromethyl)picolinonitrile], for which the IC50 at AR-VP16 [1] is under 1000 nM. Also, the “ARVP16 DNA Binding Assay” value at AR-VP16 [2] is “No (Agonist defined as a compound whose Emax in the ARVP16 DNA Binding Assay (Agonist mode) is >20x DMSO control)”.

In the case of `Cc1cc(N2C(=O)C3(CCC3)N(c3ccc(OC4CCNCC4)cc3)C2=S)cnc1C#N` [Compound 210, 3-Methyl-5-(8-oxo-5-(4-(piperidin-4-yloxy)phenyl)-6-thioxo-5,7-diazaspiro[3.4]octan-7-yl)picolinonitrile], the IC50 at AR-VP16 [1] was over 1000 nM. The “ARVP16 DNA Binding Assay” value at AR-VP16 [2] is “No (Agonist defined as a compound whose Emax in the ARVP16 DNA Binding Assay (Agonist mode) is >20x DMSO control)”.

In the case of `N#Cc1ncc(N2C(=O)C3(CCC3)N(c3ccc(OC4CCNCC4)cc3)C2=S)cc1C(F)(F)F` [Compound 211, 5-(8-Oxo-5-(4-(piperidin-4-yloxy)phenyl)-6-thioxo-5,7-diazaspiro[3.4]octan-7-yl)-3-(trifluoromethyl)picolinonitrile], the IC50 on AR-VP16 [1] is under 1000 nM. Besides, the “ARVP16 DNA Binding Assay” value on AR-VP16 [2] was “No (Agonist defined as a compound whose Emax in the ARVP16 DNA Binding Assay (Agonist mode) is >20x DMSO control)”.

Compound `CCC(=O)N1CCC(Oc2ccc(N3C(=S)N(c4cnc(C#N)c(C(F)(F)F)c4)C(=O)C34CCC4)cc2)CC1` [Compound 212, 5-(8-Oxo-5-(4-((1-propionylpiperidin-4-yl)oxy)phenyl)-6-thioxo-5,7-diazaspiro[3.4]octan-7-yl)-3-(trifluoromethyl)picolinonitrile] registered an IC50 at AR-VP16 [1] of under 1000 nM. Further, the “ARVP16 DNA Binding Assay” value on AR-VP16 [2] is listed as “Yes (Agonist defined as a compound whose Emax in the ARVP16 DNA Binding Assay (Agonist mode) is >20x DMSO control)”.

For the compound `CC(C)C(=O)N1CCC(Oc2ccc(N3C(=S)N(c4cnc(C#N)c(C(F)(F)F)c4)C(=O)C34CCC4)cc2)CC1` [Compound 213, 5-(5-(4-((1-isobutyrylpiperidin-4-yl)oxy)phenyl)-8-oxo-6-thioxo-5,7-diazaspiro[3.4]octan-7-yl)-3-(trifluoromethyl)picolinonitrile], the IC50 on AR-VP16 [1] is under 1000 nM. Also, the “ARVP16 DNA Binding Assay” value on AR-VP16 [2] was “Yes (Agonist defined as a compound whose Emax in the ARVP16 DNA Binding Assay (Agonist mode) is >20x DMSO control)”.

`CCOC(=O)N1CCC(Oc2ccc(N3C(=S)N(c4cnc(C#N)c(C(F)(F)F)c4)C(=O)C34CCC4)cc2)CC1` [Compound 214, ethyl 4-(4-(7-(6-cyano-5-(trifluoromethyl)pyridin-3-yl)-8-oxo-6-thioxo-5,7-diazaspiro[3.4]octan-5-yl)phenoxy)piperidine-1-carboxylate] showed an IC50 on AR-VP16 [1] of under 1000 nM. The “ARVP16 DNA Binding Assay” value on AR-VP16 [2] was “Yes (Agonist defined as a compound whose Emax in the ARVP16 DNA Binding Assay (Agonist mode) is >20x DMSO control)”.

Regarding `CC(=O)N1CCC(Oc2ccc(N3C(=S)N(c4cnc(C#N)c(C)c4)C(=O)C34CCC4)cc2)CC1` [Compound 215, 5-(5-(4-((1-acetylpiperidin-4-yl)oxy)phenyl)-8-oxo-6-thioxo-5,7-diazaspiro[3.4]octan-7-yl)-3-methylpicolinonitrile], the IC50 on AR-VP16 [1] was under 1000 nM. Besides, at AR-VP16 [2], the “ARVP16 DNA Binding Assay” value is listed as “Yes (Agonist defined as a compound whose Emax in the ARVP16 DNA Binding Assay (Agonist mode) is >20x DMSO control)”.

`CCN1CCC(Oc2ccc(N3C(=S)N(c4cnc(C#N)c(C)c4)C(=O)C34CCC4)cc2)CC1` [Compound 216, 5-(5-(4-((1-Ethylpiperidin-4-yl)oxy)phenyl)-8-oxo-6-thioxo-5,7-diazaspiro[3.4]octan-7-yl)-3-methylpicolinonitrile] came in with an IC50 at AR-VP16 [1] of over 1000 nM. On AR-VP16 [2], the “ARVP16 DNA Binding Assay” value is “No (Agonist defined as a compound whose Emax in the ARVP16 DNA Binding Assay (Agonist mode) is >20x DMSO control)”.

The compound `Cc1cc(N2C(=O)C3(CCC3)N(c3ccc(OC4CCN(CCO)CC4)cc3)C2=S)cnc1C#N` [Compound 217, 5-(5-(4-((1-(2-Hydroxyethyl)piperidin-4-yl)oxy)phenyl)-8-oxo-6-thioxo-5,7-diazaspiro[3.4]octan-7-yl)-3-methylpicolinonitrile] showed an IC50 on AR-VP16 [1] of under 1000 nM. In addition, the “ARVP16 DNA Binding Assay” value at AR-VP16 [2] is reported as “No (Agonist defined as a compound whose Emax in the ARVP16 DNA Binding Assay (Agonist mode) is >20x DMSO control)”.

At AR-VP16 [1], `CS(=O)(=O)N1CCC(Oc2ccc(N3C(=S)N(c4cnc(C#N)c(C(F)(F)F)c4)C(=O)C34CCC4)cc2)CC1` [Compound 219, 5-(5-(4-((1-(methylsulfonyl)piperidin-4-yl)oxy)phenyl)-8-oxo-6-thioxo-5,7-diazaspiro[3.4]octan-7-yl)-3-(trifluoromethyl)picolinonitrile] displayed an IC50 of under 1000 nM. Further, the “ARVP16 DNA Binding Assay” value at AR-VP16 [2] was “Yes (Agonist defined as a compound whose Emax in the ARVP16 DNA Binding Assay (Agonist mode) is >20x DMSO control)”.

In the case of `CC(C)N1CCC(Oc2ccc(N3C(=S)N(c4cnc(C#N)c(C(F)(F)F)c4)C(=O)C34CCC4)cc2)CC1` [Compound 220, 5-(5-(4-((1-Isopropylpiperidin-4-yl)oxy)phenyl)-8-oxo-6-thioxo-5,7-diazaspiro[3.4]octan-7-yl)-3-(trifluoromethyl)picolinonitrile], the IC50 on AR-VP16 [1] is under 1000 nM. On AR-VP16 [2], the “ARVP16 DNA Binding Assay” value is on record as “No (Agonist defined as a compound whose Emax in the ARVP16 DNA Binding Assay (Agonist mode) is >20x DMSO control)”.
